This is an account of results in patent US20260001928A1 (CORTERIA PHARMACEUTICALS, priority 2022, published 2026).

One series deals with T1, CFR1R receptor (Homo sapiens, UniProt P34998).
T1 construct: host or cells: CHO-K1 (clone 2)
T1 sequence (P34998 24-415): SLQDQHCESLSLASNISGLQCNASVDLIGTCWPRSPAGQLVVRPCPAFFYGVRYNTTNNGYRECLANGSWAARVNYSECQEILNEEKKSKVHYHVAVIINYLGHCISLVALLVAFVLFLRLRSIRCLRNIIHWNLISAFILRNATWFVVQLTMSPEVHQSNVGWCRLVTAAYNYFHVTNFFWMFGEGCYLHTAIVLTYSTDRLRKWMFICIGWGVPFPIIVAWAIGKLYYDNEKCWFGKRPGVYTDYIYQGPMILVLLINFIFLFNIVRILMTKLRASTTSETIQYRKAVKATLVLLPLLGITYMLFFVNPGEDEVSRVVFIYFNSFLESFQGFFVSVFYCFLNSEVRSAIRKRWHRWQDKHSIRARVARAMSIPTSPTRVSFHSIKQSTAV
Description: Activity at anti-target CFR1R receptor, cAMP assay in CRF1R-overexpression CHO-K1 cells. The format is cell-based. The note with it: 100% = Sauvagine at 100 nM; for pEC50: cAMP. The essentials:
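Run as for the TeloHAEC line, except the full-activation control well received Sauvagine (100 nM) and final density was 4000 cells/well. Cells from clone 2 came from frozen aliquots of near-confluent cultures.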

The nature of series [1]: Chemical stability in buffer (pH 7.4 / pH 4.5), % purity loss. The format is physicochemical. The conditions noted are these: 40° C. vs 5° C., 14 or 28 days; for Buffer stability pH 4.5 % purity loss: 100 mM acetate buffer pH 4.5; for Buffer stability pH 7.4 % purity loss: 100 mM phosphate buffer pH 7.4. How it is done: Solubility and chemical stability were studied in 100 mM phosphate buffer (pH 7.4) and 100 mM acetate buffer (pH 4.5). Test compound powders were dissolved in both buffers at a target concentration of 10 mg/mL and incubated for 1 hour at room temperature. After centrifugation at 2500 rcf for 15 minutes, 10 μL of supernatant was diluted with 190 μL of the incubation buffer and analyzed by LC-UV (Acquity UPLC-DAD, Waters). Solubility was calculated by comparing the peak area of the test compound in the buffer sample with the peak area of the same compound dissolved at 0.5 mg/mL in water:acetonitrile 1:1, 0.1% formic acid.
From the centrifuged supernatant, two additional 80 μL aliquots were collected and diluted with 160 μL of incubation buffer. One aliquot was stored at 5° C., while the other was stored at 40° C. After 14 or 28 days, the samples were analyzed by LC-UV. Chemical stability was calculated as % loss using the following equations: […]

The next series addresses T2, human CRF2a receptor (Homo sapiens, UniProt Q13324).
T2 construct: expressed in transfected cells; host or cells: TeloHEAC cells
T2 sequence (Q13324 1-411): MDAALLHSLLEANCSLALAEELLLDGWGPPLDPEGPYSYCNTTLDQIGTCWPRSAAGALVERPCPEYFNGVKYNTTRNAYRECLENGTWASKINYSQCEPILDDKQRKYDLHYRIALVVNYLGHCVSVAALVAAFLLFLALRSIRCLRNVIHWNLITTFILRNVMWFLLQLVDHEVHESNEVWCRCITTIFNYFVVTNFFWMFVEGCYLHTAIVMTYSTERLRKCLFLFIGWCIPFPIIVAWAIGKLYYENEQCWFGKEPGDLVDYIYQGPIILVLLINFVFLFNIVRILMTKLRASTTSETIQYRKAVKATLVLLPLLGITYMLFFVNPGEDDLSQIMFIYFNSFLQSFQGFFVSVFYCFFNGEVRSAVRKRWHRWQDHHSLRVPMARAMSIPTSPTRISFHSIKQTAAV
Description: Activity at human CRF2a receptor, cAMP functional assay in TeloHEAC cells. The format is cell-based. The note with it: TeloHEAC cells stably expressing human CRF2a receptor, relative to urocortin 2 (100 nM = 100%). The essentials: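 TeloHEAC cells stably expressing human CRF2a (10000 cells/well, suspended in HBSS/20 mM HEPES with 2 mM IBMX) were exposed to compounds for 30 min at 37 °C. cAMP was read as the 665/620 nm fluorescence ratio after 1 h at room temperature. EC50 was derived relative to 100 nM urocortin 2, set as 100%.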

The next series concerns Sprague Dawley rats. Put plainly: Effect on systolic blood pressure, telemetry in Sprague Dawley rats. The format is in vivo, rat. The conditions noted are these: 0.1 mg/kg SC; for Systolic blood pressure (Mean) % change from baseline, 8 h / Systolic blood pressure (Mean) % change from baseline, 12 h / Systolic blood pressure (Mean) % change from baseline, 24 h: n=2; for Duration of action: last time point with an effect on BP still observed. The essentials:
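Sprague Dawley rats with abdominal-aorta telemetry catheters, recovered ≥10 days, received 0.1 mg/kg SC of compound or vehicle. Systolic pressure recorded 1 h pre-dose as baseline, then continuously up to 48 hours, expressed as % change from baseline; duration of action is last time point with a BP effect (n=2).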

pEC50: −log10 of the molar value. *1 amine or outer side, *2 acyl side, *3 side chain or, on linkers, in order; H or OH if unused. Where a SMILES comes first, the peptide text is derived from it. Side-chain parts run from the residue outwards. [ ]: non-standard residue; d: D form. The star is where a group is joined. C16 diacid = O=C(O)CCCCCCCCCCCCCCC(=O)*; γGlu = O=C(O)[C@H](CCC(=O)[*:2])N[*:1]; αMeL = CC(C)C[C@](C)(N)C(=O)O; Aib = CC(C)(N)C(=O)O

For the molecule `CC[C@H](C)[C@H](NC(C)=O)C(=O)N[C@H](C(=O)N[C@@H](CC(C)C)C(=O)N[C@@H](CO)C(=O)N[C@@H](CC(C)C)C(=O)N[C@@H](CC(=O)O)C(=O)N[C@H](C(=O)N1CCC[C@H]1C(=O)N[C@H](C(=O)N[C@@H](CCCCN)C(=O)N[C@@](C)(CC(C)C)C(=O)N[C@@H](CCCCNC(=O)CC[C@H](NC(=O)CCCCCCCCCCCCCCC(=O)O)C(=O)O)C(=O)N[C@@H](CCC(N)=O)C(=O)N[C@H](C(=O)N[C@@H](CC(C)C)C(=O)N[C@@H](CC(C)C)C(=O)N[C@@H](CCCCN)C(=O)N[C@@H](CCC(N)=O)C(=O)N[C@@H](CCC(=O)O)C(=O)N[C@@H](CCCNC(=N)N)C(=O)N[C@@H](CCC(N)=O)C(=O)N[C@@H](CCCCN)C(=O)N[C@@H](CCCCN)C(=O)N[C@@H](CCC(N)=O)C(=O)N[C@@H](CCCNC(=N)N)C(=O)N[C@@H](CCC(=O)O)C(=O)N[C@@H](CCC(N)=O)C(=O)N[C@@H](C)C(=O)N[C@@H](CCC(=O)O)C(=O)N[C@@H](CCCCN)C(=O)N[C@@H](CC(N)=O)C(=O)NC(C)(C)C(=O)N[C@@H](CCC(N)=O)C(=O)N[C@H](C(=O)N[C@@H](CC(C)C)C(=O)N[C@@H](CCC(=O)O)C(=O)N[C@@H](CCC(N)=O)C(=O)N[C@H](C(N)=O)C(C)C)[C@@H](C)CC)[C@@H](C)CC)[C@@H](C)CC)C(C)C)C(C)C` [compound 19] (Ac-IVLSLDVPIK[αMeL]K([γGlu-C16 diacid])QILLKQERQKKQREQAEKN[Aib]QILEQV-NH2), on CFR1R receptor, the “Emax (% I)” value was found to be 6 % I and the negative-log EC50 (pEC50) is < 6.60. Moreover, in series [1], the “Buffer stability pH 4.5 % purity loss” value was 0/0 ^ % and the “Buffer stability pH 7.4 % purity loss” value was 0/0 ^ %. This molecule also gave a negative-log EC50 (pEC50) on human CRF2a receptor of 9.55. In addition, in the series with Sprague Dawley rats, the “Systolic blood pressure (Mean) % change from baseline, 8 h” value was −21%; the “Systolic blood pressure (Mean) % change from baseline, 12 h” value came to 0%; the “Systolic blood pressure (Mean) % change from baseline, 24 h” value is recorded as 10%; the Duration of action is 11 h.

As for `CC[C@H](C)[C@H](NC(=O)[C@H](CCC(N)=O)NC(=O)[C@H](CCCCN)NC(=O)[C@H](CC(N)=O)NC(=O)[C@@H](NC(=O)[C@H](CCC(=O)O)NC(=O)[C@H](C)NC(=O)[C@H](CCC(N)=O)NC(=O)[C@H](CCC(=O)O)NC(=O)[C@H](CCCNC(=N)N)NC(=O)[C@H](CCC(N)=O)NC(=O)[C@H](CCCCN)NC(=O)[C@H](CCCCN)NC(=O)[C@H](CCC(N)=O)NC(=O)[C@H](CCCCN)NC(=O)[C@H](CCC(=O)O)NC(=O)[C@H](CCC(N)=O)NC(=O)[C@H](CCC(=O)O)NC(=O)[C@H](CC(C)C)NC(=O)[C@H](CC(C)C)NC(=O)[C@@H](NC(=O)[C@H](CCCCN)NC(=O)[C@H](CCCCNC(=O)CC[C@H](NC(=O)CCCCCCCCCCCCCCC(=O)O)C(=O)O)NC(=O)[C@H](CC(C)C)NC(=O)[C@H](CCCCN)NC(=O)[C@@H](NC(=O)[C@@H]1CCCN1C(=O)[C@H](NC(=O)[C@H](CC(=O)O)NC(=O)[C@H](CC(C)C)NC(=O)[C@H](CO)NC(=O)[C@H](CC(C)C)NC(=O)[C@@H](NC(C)=O)C(C)C)C(C)C)[C@@H](C)CC)[C@@H](C)CC)[C@@H](C)O)C(=O)N[C@@H](CC(C)C)C(=O)N[C@@H](C)C(=O)N[C@@H](CCC(N)=O)C(=O)N[C@H](C(N)=O)C(C)C` [compound 33] (Ac-VLSLD[dV]PIKLK([γGlu-C16 diacid])KILLEQEKQKKQREQAETNKQILAQV-NH2), on CFR1R receptor, the “Emax (% I)” value was determined as 13 % I and the pEC50 was < 6.60. Also, in series [1], the “Buffer stability pH 4.5 % purity loss” value is 0% and the “Buffer stability pH 7.4 % purity loss” value is 18.8%. At human CRF2a receptor, this molecule showed a pEC50 of 9.33. Moreover, in the series with Sprague Dawley rats, the “Systolic blood pressure (Mean) % change from baseline, 8 h” value is listed as −22%; the “Systolic blood pressure (Mean) % change from baseline, 12 h” value is recorded as −11%; the “Systolic blood pressure (Mean) % change from baseline, 24 h” value stood at 16%; the Duration of action worked out at 17 h.

In the case of `CC[C@H](C)[C@H](NC(C)=O)C(=O)N[C@H](C(=O)N[C@@H](CC(C)C)C(=O)N[C@@H](CO)C(=O)N[C@@H](CC(C)C)C(=O)N[C@@H](CC(=O)O)C(=O)N[C@H](C(=O)N1CCC[C@H]1C(=O)N[C@H](C(=O)N[C@@H](CCCCN)C(=O)N[C@@](C)(CC(C)C)C(=O)N[C@@H](CCCCNC(=O)CC[C@H](NC(=O)CCCCCCCCCCCCCCC(=O)O)C(=O)O)C(=O)N[C@@H](CCCCN)C(=O)N[C@H](C(=O)N[C@@H](CC(C)C)C(=O)N[C@@H](CC(C)C)C(=O)N[C@@H](CCC(=O)O)C(=O)N[C@@H](CCC(N)=O)C(=O)N[C@@H](CCC(=O)O)C(=O)N[C@@H](CCCCN)C(=O)N[C@@H](CCC(N)=O)C(=O)N[C@@H](CCCCN)C(=O)N[C@@H](CCCCN)C(=O)N[C@@H](CCC(N)=O)C(=O)N[C@@H](CCCNC(=N)N)C(=O)N[C@@H](CCC(=O)O)C(=O)N[C@@H](CCC(N)=O)C(=O)N[C@@H](C)C(=O)N[C@@H](CCC(=O)O)C(=O)N[C@H](C(=O)N[C@@H](CC(N)=O)C(=O)NC(C)(C)C(=O)N[C@@H](CCC(N)=O)C(=O)N[C@H](C(=O)N[C@@H](CC(C)C)C(=O)N[C@@H](C)C(=O)N[C@@H](CCC(N)=O)C(=O)N[C@H](C(N)=O)C(C)C)[C@@H](C)CC)[C@@H](C)O)[C@@H](C)CC)[C@@H](C)CC)C(C)C)C(C)C` [compound 43] (Ac-IVLSLDVPIK[αMeL]K([γGlu-C16 diacid])KILLEQEKQKKQREQAETN[Aib]QILAQV-NH2), at CFR1R receptor, the “Emax (% I)” value was 1 % I and the pEC50 was < 6.60. Besides, the “Buffer stability pH 7.4 % purity loss” value in series [1] is 0/nd ^ %. On human CRF2a receptor, this molecule gave a pEC50 of 9.52. In the series on Sprague Dawley rats, the “Systolic blood pressure (Mean) % change from baseline, 8 h” value is listed as −18%; the “Systolic blood pressure (Mean) % change from baseline, 12 h” value is on record as −1%; the “Systolic blood pressure (Mean) % change from baseline, 24 h” value was 13%; the Duration of action is recorded as 12 h.
